# Starred links: 1 amine or outer side, 2 acyl side, 3 side chain; linkers in the order of their positions; H or OH if unused. Non-standard residues stand in square brackets, D forms with d. Residues, ends and D or L forms follow the SMILES beside them. Groups on a side chain read outwards from the residue. *: point of attachment. C20 diacid = O=C(O)CCCCCCCCCCCCCCCCCCC(=O)*; C18 diacid = O=C(O)CCCCCCCCCCCCCCCCC(=O)*; γGlu = O=C(O)[C@H](CCC(=O)[*:2])N[*:1]; NMeY = CN[C@@H](Cc1ccc(O)cc1)C(=O)O; AEEA = NCCOCCOCC(=O)O; Aib = CC(C)(N)C(=O)O
# Assay: physchem
# Summary of the method: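 3 mg of peptide treated with 100 μL portions of 200 mM phosphate buffer pH 7.4, sonicating/vortexing up to 1 min, with further buffer added until fully dissolved. Solubility then quantified by HPLC.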
Compound,solubility (pH 7.4),"solubility (pH 7.4, aqueous buffer)"
CC[C@H](C)[C@H](NC(=O)[C@H](CO)NC(=O)[C@H](Cc1ccc(O)cc1)NC(=O)[C@H](CC(=O)O)NC(=O)[C@H](CO)NC(=O)[C@@H](NC(=O)[C@H](Cc1ccccc1)NC(=O)[C@@H](NC(=O)CNC(=O)[C@H](CCC(=O)O)NC(=O)C(C)(C)NC(=O)[C@H](Cc1ccc(O)cc1)NC)[C@@H](C)O)[C@@H](C)CC)C(=O)N[C@@H](C)C(=O)N[C@@H](CC(C)C)C(=O)N[C@@H](CC(=O)O)C(=O)N[C@@H](CCCNC(=N)N)C(=O)NC(C)(C)C(=O)N[C@@H](C)C(=O)N[C@@H](CCC(N)=O)C(=O)NC(C)(C)C(=O)N[C@@H](CC(=O)O)C(=O)N[C@@H](Cc1ccccc1)C(=O)N[C@H](C(=O)N[C@@H](CC(N)=O)C(=O)N[C@@H](Cc1c[nH]c2ccccc12)C(=O)N[C@@H](CC(C)C)C(=O)N[C@@H](CC(C)C)C(=O)N[C@@H](C)C(=O)N[C@@H](CCC(N)=O)C(=O)N[C@@H](CCCCNC(=O)COCCOCCNC(=O)COCCOCCNC(=O)CC[C@H](NC(=O)CC[C@H](NC(=O)CCCCCCCCCCCCCCCCC(=O)O)C(=O)O)C(=O)O)C(=O)NCC(=O)O)C(C)C [Compound 61] (H-[NMeY][Aib]EGTFISDYSIALDR[Aib]AQ[Aib]DFVNWLLAQK([AEEA-AEEA-γGlu-γGlu-C18 diacid])G-OH),≥ 15 mg/mL,≥ 30 mg/mL
CC[C@H](C)[C@H](NC(=O)[C@H](Cc1ccccc1)NC(=O)[C@@H](NC(=O)CNC(=O)[C@H](CCC(=O)O)NC(=O)C(C)(C)NC(=O)[C@H](Cc1ccc(O)cc1)NC)[C@@H](C)O)C(=O)N[C@@H](CO)C(=O)N[C@@H](CC(=O)O)C(=O)N[C@@H](Cc1ccc(O)cc1)C(=O)N[C@@H](CO)C(=O)N[C@H](C(=O)NC(C)(C)C(=O)N[C@@H](CC(C)C)C(=O)N[C@@H](CC(=O)O)C(=O)N[C@@H](CCCNC(=N)N)C(=O)NC(C)(C)C(=O)N[C@@H](C)C(=O)N[C@@H](CCC(N)=O)C(=O)NC(C)(C)C(=O)N[C@@H](CC(=O)O)C(=O)N[C@@H](Cc1ccccc1)C(=O)N[C@H](C(=O)N[C@@H](CC(N)=O)C(=O)N[C@@H](Cc1c[nH]c2ccccc12)C(=O)N[C@@H](CC(C)C)C(=O)N[C@@H](CC(C)C)C(=O)N[C@@H](C)C(=O)N[C@@H](CCCCNC(=O)COCCOCCNC(=O)COCCOCCNC(=O)CC[C@H](NC(=O)CC[C@H](NC(=O)CCCCCCCCCCCCCCCCC(=O)O)C(=O)O)C(=O)O)C(=O)N[C@@H](CCCNC(=N)N)C(=O)NCC(=O)O)C(C)C)[C@@H](C)CC [Compound 62] (H-[NMeY][Aib]EGTFISDYSI[Aib]LDR[Aib]AQ[Aib]DFVNWLLAK([AEEA-AEEA-γGlu-γGlu-C18 diacid])RG-OH),≥ 15 mg/mL,≥ 30 mg/mL
CC[C@H](C)[C@H](NC(=O)[C@H](Cc1ccccc1)NC(=O)[C@@H](NC(=O)CNC(=O)[C@H](CCC(=O)O)NC(=O)C(C)(C)NC(=O)[C@H](Cc1ccc(O)cc1)NC)[C@@H](C)O)C(=O)N[C@@H](CO)C(=O)N[C@@H](CC(=O)O)C(=O)N[C@@H](Cc1ccc(O)cc1)C(=O)N[C@@H](CO)C(=O)N[C@H](C(=O)NC(C)(C)C(=O)N[C@@H](CC(C)C)C(=O)N[C@@H](CC(=O)O)C(=O)N[C@@H](CCCNC(=N)N)C(=O)NC(C)(C)C(=O)N[C@@H](C)C(=O)N[C@@H](CCC(N)=O)C(=O)NC(C)(C)C(=O)N[C@@H](CCCCNC(=O)COCCOCCNC(=O)COCCOCCNC(=O)CC[C@H](NC(=O)CC[C@H](NC(=O)CCCCCCCCCCCCCCCCCCC(=O)O)C(=O)O)C(=O)O)C(=O)N[C@@H](Cc1ccccc1)C(=O)N[C@H](C(=O)N[C@@H](CC(N)=O)C(=O)N[C@@H](Cc1c[nH]c2ccccc12)C(=O)N[C@@H](CC(C)C)C(=O)N[C@@H](CC(C)C)C(=O)N[C@@H](C)C(=O)N[C@@H](CCC(N)=O)C(=O)N[C@@H](CCCCN)C(=O)NCC(=O)O)C(C)C)[C@@H](C)CC [Compound 65] (H-[NMeY][Aib]EGTFISDYSI[Aib]LDR[Aib]AQ[Aib]K([AEEA-AEEA-γGlu-γGlu-C20 diacid])FVNWLLAQKG-OH),≥ 15 mg/mL,≥ 30 mg/mL

# From patent US20230143604A1, “QW DOSING OF GIP RECEPTOR AGONIST PEPTIDE COMPOUNDS AND USES THEREOF” (TAKEDA PHARMACEUTICAL COMPANY LIMITED, priority 2020, published 2023)
